Measurements reported in patent US8440625B2, “Secreted protein acidic and rich in cysteine (SPARC) as chemotherapeutic sensitizers” (University of British Columbia, priority 2006, dated 2013).
Entries after “also recorded” stand apart in the source; their conditions may differ.

B1: Secreted protein acidic and rich in cysteine (protein, listed as Homo sapiens)
chain: MRAWIFFLLCLAGRALAAPQQEALPDETEVVEETVAEVTEVSVGANPVQVEVGEFDDGAEETEEEVVAENPCQNHHCKHGKVCELDENNTPMCVCQDPTSCPAPIGEFEKVCSNDNKTFDSSCHFFATKCTLEGTKKGHKLHLDYIGPCKYIPPCLDSELTEFPLRMRDWLKNVLVTLYERDEDNNLLTEKQKLRVKKIHENEKRLEAGDHPVELLARDFEKNYNMYIFPVHWQFGQLDQHPIDGYLSHTELAPLRAPLIPMEHCTTRFFETCDLDNDKYIALDEWAGCFGIKQKDIDKDLVI
notes: 303 amino acid SPARC protein, also known as osteonectin

How the values were obtained:
[1] = tested on: MIP 101 cells; test: Peptide assay, cell viability (MTS), 5FU sensitive cells; format: cell-based; settings: for cell viability: 96 or 200 μg/ml
Experimental: (§1) Sensitive MIP 101 and resistant MIP/5FU cells were seeded at a density of 8,000 cells/well (96-well plate) in DMEM supplemented with 10% FBS, 1% penicillin/streptomycin. After incubation at 37° C. with 5% CO2 for 48 hrs, the media was removed and fresh serum-free conditioned medium (VP-SFM, Invitrogen) containing the peptide of interest was incubated for an additional 48 hrs in the presence or absence of 500 μM 5-FU. Cell viability was assessed by MTS assay.
(§2) Peptides were custom synthesized by Sigma. Peptides A, A1, A2, A3 were dissolved in 0.1% DMSO. Peptides B8, B14, B8-scramble and B14-scramble were dissolved in PBS. For the MTS cell viability assay, a dose response curve was obtained using a “high” peptide concentration of 200 μg/ml, and a “low” peptide concentration of […].
(§3) For the MTS assay, 3-(4,5-dimethylthiazol-2-yl)-5-(3-carboxy-methoxyphenyl)-2-(4-sulfophenyl)-2H-tetrazolium inner salt (MTS) and phenazine methosulfate (PMS), purchased from Promega (Madison, Wis.), were mixed in the proportions 2:0.92 μg/ml, and 25 μl of the mixture was added to each well. After incubation at 37° C. with 5% CO2 for 2 h, the absorbance of each well at 490 nm was measured in a 96-well plate reader (Versa Max, version 4.8, Molecular Devices Co.) according to the manufacturer's instructions. Cell viability was expressed as a percentage of control.

[2] = tested on: MIP/5FU cells; test: Peptide assay, cell viability (MTS), 5FU resistant cells; format: cell-based; settings: for cell viability / sensitivity to 5-FU: peptide 96 or 200 μg/ml plus 5-FU 500 μM, compared to 5-FU alone
Experimental: (§4) Resistant MIP101 cells were developed following long-term incubation with incremental concentrations of 5 fluorouracil (5-FU) (10-500 uM), irinotecan (CPT) (1-50 uM; Pharmacia), cisplatin (CIS) (1-100 uM) or etoposide (ETO) (0.1-5 uM: Sigma-Aldrich). The concentration of each agent was increased 10% every 2 weeks for a 6 month period.
as §1, §2, §3

[3] = tested on: MIP/CPT cells; test: Transient transfection of SPARC fragments, cell viability (MTS) with irinotecan, resistant cells; format: cell-based; settings: cells transfected with control (empty vector), 500 uM CPT-11
Experimental: Polynucleotide fragments corresponding to SEQ ID NO: 2, SEQ ID NO: 4 or SEQ ID NO: 6 were amplified by PCR and inserted into the pSecTag vector (Invitrogen), and verified by sequencing.
Colorectal cell lines MIP101 and MIP/CPT cells were maintained in Dulbecco's modified Eagle's medium (DMEM) (Invitrogen) supplemented with 10% fetal bovine serum (FBS) (Invitrogen), 1% penicillin/streptomycin (Invitrogen) at 37° C. and 5% CO2.
as §4
Transient transfections were performed as previously described (Tai TC et al., 2001. J Neurochem; 76:1851-9) Briefly, MIP 101 colorectal cancer cells and resistant MIP/CPT cells grown to 50-60% confluency in 96-well tissue culture plates were transfected with 1.0 μg of vector (control) or vector+SPARC fragments using PEI transfection (Tai, T. C. et al., 2002. Mol Pharmacol 61:1385-92). […] Cell proliferation was assessed by MTS assay (Promega). […]

[4] = tested on: resistant tumours; settings: protein administered; response of resistant tumours to 5-fluorouracil, irinotecan, cisplatin or etoposide; cited from earlier work
[5] = peptide alone, high concentration (200 μg/ml)
[6] = peptide high concentration (200 μg/ml) in combination with 5-FU 500 μM

Molecule | % cell viability [1, 5] | % cell viability [1, 6] | % cell viability [2, 5] | % cell viability [2, 6] | also measured
B14: SPARC peptide CQNHHCKHGKVCELDENNTPMCVCQDPTSCP (SEQ ID NO: 9) (listed as Homo sapiens) [Peptide B14] |  |  |  |  | cell viability ([1]; peptide alone): did not significantly affect viability; cell viability / sensitivity to 5-FU [2]: cell viability decreased; cell viability ([2]; peptide alone, 96 or 200 μg/ml): did not significantly affect viability
CCc1c2c(nc3ccc(OC(=O)N4CCC(N5CCCCC5)CC4)cc13)-c1cc3c(c(=O)n1C2)COC(=O)[C@]3(O)CC [CPT-11, irinotecan] |  |  |  |  | cell viability [3]: remained viable
A2: first 17 amino acids of SPARC with additional N-terminal residues: ACLPLRVPSTMRAWIFFLLCLAGRALA (listed as Homo sapiens) [Peptide A2] | did not significantly affect | did not significantly affect | did not significantly affect | did not significantly affect | 
A: first 17 amino acids of full length SPARC with additional N-terminal residues: ESALCLPPACLPLRVPSTMRAWLFFLLCLAGRALA (ESALCLPPACLPLRVPSTMRAWIFFLLCLAGRALA; listed as Homo sapiens) | did not significantly affect | did not significantly affect | did not significantly affect | did not significantly affect | 
O=c1[nH]cc(F)c(=O)[nH]1 [Peptide 5-FU, 5-fluorouracil, reference compound] |  |  |  |  | cell viability ([2]; 5-FU alone (500 μM)): greater viability; also recorded: no effect on cell viability
A1: first 17 amino acids of the full length SPARC protein: MRAWIFFLLCLAGRALA (listed as Homo sapiens) [Peptide A1] | did not significantly affect | did not significantly affect | did not significantly affect | did not significantly affect | 
H-APQQEALPDETEVVEETVAEVTE-OH [Peptide B8] |  |  |  |  | cell viability ([1]; peptide alone): did not affect cell viability; cell viability / sensitivity to 5-FU [2]: increasing sensitivity of the resistant cells; cell viability ([2]; peptide alone, 96 or 200 μg/ml): did not affect cell viability
B8-SCR: scrambled B8 negative control peptide QPLEAVQPTAVEEDAEVETTEEV (B8 scrambled) [Peptide B8-SCR, reference compound] | did not significantly affect | did not significantly affect | did not significantly affect | did not significantly affect | 
A3: first 17 amino acids of SPARC with additional N-terminal residues: CLPPACLPLRVPSTMRAWIFFLLCLAGRALA (listed as Homo sapiens) [Peptide A3] | did not significantly affect | did not significantly affect | did not significantly affect | did not significantly affect | 
B1 |  |  |  |  | chemosensitizing activity [4]: chemosensitizing activity has been demonstrated
